The structures appear in SMILES notation.

Assay [1] has as its target TGF-beta receptor type-2 (Homo sapiens) (UniProt P37173). The assay is described as follows: Inhibition of TGFBR2(h) at 10.0 µM in the Eurofins Kinase panel. Particulars: Compound concentration 10.0 uM.
Assay [2] concerns the target T1, Alpha-2A adrenergic receptor (Homo sapiens) (UniProt P08913).
T1 sequence (whole entry): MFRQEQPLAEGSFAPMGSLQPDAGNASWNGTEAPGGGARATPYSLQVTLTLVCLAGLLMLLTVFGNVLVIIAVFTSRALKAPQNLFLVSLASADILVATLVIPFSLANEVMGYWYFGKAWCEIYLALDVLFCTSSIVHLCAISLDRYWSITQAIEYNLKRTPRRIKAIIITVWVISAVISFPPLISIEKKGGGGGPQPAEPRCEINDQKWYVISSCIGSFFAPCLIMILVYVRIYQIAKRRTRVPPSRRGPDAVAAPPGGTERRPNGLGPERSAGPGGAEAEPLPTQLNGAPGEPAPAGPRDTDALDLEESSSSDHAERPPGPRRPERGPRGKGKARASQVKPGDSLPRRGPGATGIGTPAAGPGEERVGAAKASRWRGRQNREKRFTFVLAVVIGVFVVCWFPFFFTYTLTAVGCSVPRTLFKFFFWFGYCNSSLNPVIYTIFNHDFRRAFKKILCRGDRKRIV
Kind of assay: Inhibition of Adrenergic alpha2A at 10.0 µM in the Eurofins Panlabs Safety Screen. Particulars: Compound concentration 10.0 uM.

Assay [3] has as its target D(1B) dopamine receptor (Homo sapiens) (UniProt P21918). Particulars: Compound concentration 10.0 uM.
Assay [4] deals with Tyrosine-protein kinase Lck (Homo sapiens) (UniProt P06239). Kind of assay: Inhibition of Lck(h) at 10.0 µM in the Eurofins Kinase panel. Particulars: Compound concentration 10.0 uM.
Sequence of Tyrosine-protein kinase Lck (Homo sapiens) (P06239 2-509 limits assumed): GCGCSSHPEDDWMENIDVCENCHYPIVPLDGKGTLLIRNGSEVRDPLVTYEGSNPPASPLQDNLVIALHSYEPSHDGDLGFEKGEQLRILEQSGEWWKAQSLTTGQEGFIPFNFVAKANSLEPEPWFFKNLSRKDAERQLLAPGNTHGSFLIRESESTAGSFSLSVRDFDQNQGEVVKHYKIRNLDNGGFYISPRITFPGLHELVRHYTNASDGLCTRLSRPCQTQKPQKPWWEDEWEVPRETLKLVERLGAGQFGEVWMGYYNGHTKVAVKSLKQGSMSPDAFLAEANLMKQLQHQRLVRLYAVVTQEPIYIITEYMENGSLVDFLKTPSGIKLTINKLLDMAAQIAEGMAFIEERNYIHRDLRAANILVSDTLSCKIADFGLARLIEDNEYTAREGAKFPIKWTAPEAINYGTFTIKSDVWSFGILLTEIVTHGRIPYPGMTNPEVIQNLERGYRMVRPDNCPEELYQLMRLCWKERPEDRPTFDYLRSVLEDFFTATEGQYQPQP
Assay [5] deals with D(3) dopamine receptor (Homo sapiens, UniProt P35462). Particulars: Compound concentration 10.0 uM.
Sequence of D(3) dopamine receptor (P35462 whole entry): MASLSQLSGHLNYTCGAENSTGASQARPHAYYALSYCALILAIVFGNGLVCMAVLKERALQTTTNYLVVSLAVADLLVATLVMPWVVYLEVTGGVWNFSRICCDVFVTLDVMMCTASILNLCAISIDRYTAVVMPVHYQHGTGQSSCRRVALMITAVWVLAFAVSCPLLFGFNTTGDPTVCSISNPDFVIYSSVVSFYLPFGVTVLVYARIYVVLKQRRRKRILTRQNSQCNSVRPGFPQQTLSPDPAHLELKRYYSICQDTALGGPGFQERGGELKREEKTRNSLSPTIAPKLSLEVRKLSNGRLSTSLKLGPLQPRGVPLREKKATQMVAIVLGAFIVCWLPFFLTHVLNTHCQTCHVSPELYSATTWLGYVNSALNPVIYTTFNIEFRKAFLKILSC
For assay [6], the target named is T2, Sodium-dependent dopamine transporter (Homo sapiens, UniProt Q01959). The assay is described as follows: GPCRScan assay: inhibition of DAT. Also noted: radioligand conc. used [nm] 3.6 – 16.0, parental cells stable HEK.
T2 sequence (Q01959 whole entry): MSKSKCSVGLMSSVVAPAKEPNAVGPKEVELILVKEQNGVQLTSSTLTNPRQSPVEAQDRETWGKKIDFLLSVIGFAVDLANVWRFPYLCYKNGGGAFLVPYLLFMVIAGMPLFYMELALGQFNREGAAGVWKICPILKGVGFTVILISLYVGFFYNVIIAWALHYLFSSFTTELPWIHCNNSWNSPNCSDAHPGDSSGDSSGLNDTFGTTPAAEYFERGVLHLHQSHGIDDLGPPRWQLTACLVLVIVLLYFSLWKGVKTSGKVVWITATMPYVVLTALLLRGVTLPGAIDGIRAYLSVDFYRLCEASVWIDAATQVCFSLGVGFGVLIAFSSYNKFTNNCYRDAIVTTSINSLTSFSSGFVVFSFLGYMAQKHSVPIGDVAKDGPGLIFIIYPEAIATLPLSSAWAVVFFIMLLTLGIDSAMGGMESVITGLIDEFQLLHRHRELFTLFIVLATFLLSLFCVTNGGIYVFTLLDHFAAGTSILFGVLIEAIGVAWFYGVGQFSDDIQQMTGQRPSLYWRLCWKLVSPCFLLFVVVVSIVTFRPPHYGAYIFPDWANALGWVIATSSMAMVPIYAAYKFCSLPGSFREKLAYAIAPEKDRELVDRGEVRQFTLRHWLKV
Assay [7] deals with T3, 5-hydroxytryptamine receptor 2C (Homo sapiens) (UniProt P28335).
T3 sequence (whole entry): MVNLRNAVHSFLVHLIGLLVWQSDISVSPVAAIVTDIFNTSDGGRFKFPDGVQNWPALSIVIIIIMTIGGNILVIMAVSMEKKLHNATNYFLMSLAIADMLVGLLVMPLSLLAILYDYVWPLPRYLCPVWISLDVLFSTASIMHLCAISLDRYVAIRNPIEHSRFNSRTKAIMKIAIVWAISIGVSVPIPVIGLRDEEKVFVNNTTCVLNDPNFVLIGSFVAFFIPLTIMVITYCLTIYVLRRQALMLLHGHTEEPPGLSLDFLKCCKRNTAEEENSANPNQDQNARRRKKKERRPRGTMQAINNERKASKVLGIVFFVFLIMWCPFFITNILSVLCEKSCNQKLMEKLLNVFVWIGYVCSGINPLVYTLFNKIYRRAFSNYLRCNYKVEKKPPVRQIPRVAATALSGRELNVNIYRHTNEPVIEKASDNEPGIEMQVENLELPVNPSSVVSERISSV
Particulars: Compound concentration 10.0 uM.

The target of assay [8] is Thromboxane-A synthase (Homo sapiens) (UniProt P24557). The assay is described as follows: Inhibition of Thromboxane Synthase at 10.0 µM in the Eurofins Panlabs Safety Screen. Particulars: Compound concentration 10.0 uM.
Assay [9] has as its target Hepatocyte growth factor receptor (Homo sapiens) (UniProt P08581). The assay is described as follows: Inhibition of Met(h) at 10.0 µM in the Eurofins Kinase panel. Particulars: Compound concentration 10.0 uM.
The target in assay [10] is 5-hydroxytryptamine receptor 5A (Homo sapiens) (UniProt P47898). The note with it: Compound concentration 10.0 uM.
Sequence of 5-hydroxytryptamine receptor 5A (Homo sapiens) (P47898 whole entry): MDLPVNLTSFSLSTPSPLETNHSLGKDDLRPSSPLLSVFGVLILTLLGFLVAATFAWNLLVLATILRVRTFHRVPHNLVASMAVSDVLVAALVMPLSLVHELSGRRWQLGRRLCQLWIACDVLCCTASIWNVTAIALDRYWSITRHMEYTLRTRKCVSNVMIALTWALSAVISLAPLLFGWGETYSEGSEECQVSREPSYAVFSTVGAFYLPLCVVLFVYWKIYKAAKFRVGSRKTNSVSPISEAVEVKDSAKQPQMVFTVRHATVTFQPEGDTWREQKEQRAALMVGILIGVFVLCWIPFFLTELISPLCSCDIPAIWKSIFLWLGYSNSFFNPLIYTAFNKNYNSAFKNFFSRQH
Assay [11] concerns the target D(2) dopamine receptor (Homo sapiens) (UniProt P14416). The assay is described as follows: Inhibition of Dopamine D2S at 10.0 µM in the Eurofins Panlabs Safety Screen. Particulars: Compound concentration 10.0 uM.
The target of assay [12] is T4, Alpha-2B adrenergic receptor (Homo sapiens) (UniProt P18089).
T4 sequence (whole entry): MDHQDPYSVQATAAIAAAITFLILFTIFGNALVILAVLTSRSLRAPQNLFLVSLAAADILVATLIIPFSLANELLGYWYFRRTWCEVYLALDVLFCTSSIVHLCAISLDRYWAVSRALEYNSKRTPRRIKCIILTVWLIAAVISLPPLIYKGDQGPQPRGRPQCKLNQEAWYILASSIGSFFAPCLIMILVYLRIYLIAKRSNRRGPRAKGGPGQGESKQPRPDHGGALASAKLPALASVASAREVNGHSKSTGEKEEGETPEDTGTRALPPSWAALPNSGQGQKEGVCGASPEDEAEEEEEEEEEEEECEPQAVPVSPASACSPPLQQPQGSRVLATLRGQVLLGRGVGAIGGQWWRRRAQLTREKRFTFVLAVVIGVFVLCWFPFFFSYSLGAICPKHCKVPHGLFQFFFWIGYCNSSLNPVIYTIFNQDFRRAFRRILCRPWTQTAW
Kind of assay: Inhibition of Adrenergic alpha2B at 10.0 µM in the Eurofins Panlabs Safety Screen. The note with it: Compound concentration 10.0 uM.

Assay [13] concerns the target Alpha-1A adrenergic receptor (Rattus norvegicus) (UniProt P43140). The assay is described as follows: Inhibition of Adrenergic alpha1A at 10.0 µM in the Eurofins Panlabs Safety Screen. The note with it: Compound concentration 10.0 uM.
Assay [14] concerns the target Progesterone receptor (Homo sapiens) (UniProt P06401). Kind of assay: Inhibition of Progesterone PR-B at 10.0 µM in the Eurofins Panlabs Safety Screen. The note with it: Compound concentration 10.0 uM.
Assay [15] deals with T2, Sodium-dependent dopamine transporter. The assay is described as follows: Inhibition of Transporter, Dopamine (DAT) at 10.0 µM in the Eurofins Panlabs Safety Screen. The note with it: Compound concentration 10.0 uM.
Assay [16] has as its target Histamine H3 receptor (Homo sapiens, UniProt Q9Y5N1). The assay is described as follows: GPCRScan assay: inhibition of H3. Also noted: radioligand conc. used [nm] 0.5 – 1.0, parental cells HEK Flp-In.
Assay [17] deals with T5, Muscarinic acetylcholine receptor M4 (Homo sapiens, UniProt P08173).
T5 sequence (P08173 whole entry): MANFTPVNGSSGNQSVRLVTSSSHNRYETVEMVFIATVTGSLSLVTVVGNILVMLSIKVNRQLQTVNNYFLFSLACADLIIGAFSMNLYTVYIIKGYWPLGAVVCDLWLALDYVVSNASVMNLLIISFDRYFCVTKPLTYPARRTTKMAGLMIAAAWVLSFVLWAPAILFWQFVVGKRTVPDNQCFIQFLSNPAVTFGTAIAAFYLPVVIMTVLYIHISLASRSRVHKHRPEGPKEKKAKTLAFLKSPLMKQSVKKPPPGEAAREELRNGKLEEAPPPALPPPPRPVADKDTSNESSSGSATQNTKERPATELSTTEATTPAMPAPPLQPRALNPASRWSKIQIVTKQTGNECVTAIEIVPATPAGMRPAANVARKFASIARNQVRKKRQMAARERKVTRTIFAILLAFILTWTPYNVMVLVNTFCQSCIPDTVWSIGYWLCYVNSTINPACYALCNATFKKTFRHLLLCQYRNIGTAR
Kind of assay: GPCRScan assay: inhibition of M4. Also noted: radioligand conc. used [nm] 0.3 – 1.0, parental cells stable CHO.

In assay [18] the target is Histamine H2 receptor (Homo sapiens) (UniProt P25021). The assay is described as follows: Inhibition of Histamine H2 at 10.0 µM in the Eurofins Panlabs Safety Screen. The note with it: Compound concentration 10.0 uM.
Sequence of Histamine H2 receptor (Homo sapiens) (P25021 whole entry): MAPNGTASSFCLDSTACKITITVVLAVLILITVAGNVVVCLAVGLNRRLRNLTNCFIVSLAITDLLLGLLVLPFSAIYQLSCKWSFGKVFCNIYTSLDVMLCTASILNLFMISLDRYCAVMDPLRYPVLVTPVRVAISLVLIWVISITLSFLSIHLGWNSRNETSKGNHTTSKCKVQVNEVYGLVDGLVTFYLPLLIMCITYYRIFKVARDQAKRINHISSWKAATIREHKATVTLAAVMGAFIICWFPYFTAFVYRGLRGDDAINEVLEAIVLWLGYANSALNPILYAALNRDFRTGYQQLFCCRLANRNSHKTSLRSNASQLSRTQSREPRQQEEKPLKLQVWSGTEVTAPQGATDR

Sequence of D(1B) dopamine receptor (Homo sapiens) (P21918 whole entry): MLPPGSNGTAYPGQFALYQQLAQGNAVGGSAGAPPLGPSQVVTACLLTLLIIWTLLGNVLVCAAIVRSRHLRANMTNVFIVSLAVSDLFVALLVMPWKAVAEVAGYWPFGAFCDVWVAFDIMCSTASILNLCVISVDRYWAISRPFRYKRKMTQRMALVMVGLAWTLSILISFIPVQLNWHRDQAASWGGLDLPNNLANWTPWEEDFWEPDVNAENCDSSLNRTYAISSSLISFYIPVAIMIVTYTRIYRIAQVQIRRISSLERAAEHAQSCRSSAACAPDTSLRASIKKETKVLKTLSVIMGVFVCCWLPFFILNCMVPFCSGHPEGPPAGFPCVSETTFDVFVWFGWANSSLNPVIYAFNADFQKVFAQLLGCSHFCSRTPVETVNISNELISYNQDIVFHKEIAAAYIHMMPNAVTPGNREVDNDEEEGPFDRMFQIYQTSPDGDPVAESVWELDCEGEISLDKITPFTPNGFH
Sequence of Histamine H3 receptor (Q9Y5N1 whole entry): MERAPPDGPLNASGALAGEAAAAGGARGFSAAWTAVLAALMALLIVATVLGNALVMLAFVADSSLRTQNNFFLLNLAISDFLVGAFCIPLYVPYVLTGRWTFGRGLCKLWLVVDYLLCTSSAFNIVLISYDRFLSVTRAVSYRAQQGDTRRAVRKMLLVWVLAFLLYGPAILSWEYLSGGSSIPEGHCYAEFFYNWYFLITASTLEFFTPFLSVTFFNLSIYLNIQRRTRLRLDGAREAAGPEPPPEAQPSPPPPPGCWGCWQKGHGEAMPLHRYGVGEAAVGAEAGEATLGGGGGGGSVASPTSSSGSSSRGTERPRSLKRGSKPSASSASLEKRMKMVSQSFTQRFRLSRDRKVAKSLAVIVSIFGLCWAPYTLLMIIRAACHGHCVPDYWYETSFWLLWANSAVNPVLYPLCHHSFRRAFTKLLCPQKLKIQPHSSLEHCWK
Sequence of Alpha-1A adrenergic receptor (Rattus norvegicus) (P43140 whole entry): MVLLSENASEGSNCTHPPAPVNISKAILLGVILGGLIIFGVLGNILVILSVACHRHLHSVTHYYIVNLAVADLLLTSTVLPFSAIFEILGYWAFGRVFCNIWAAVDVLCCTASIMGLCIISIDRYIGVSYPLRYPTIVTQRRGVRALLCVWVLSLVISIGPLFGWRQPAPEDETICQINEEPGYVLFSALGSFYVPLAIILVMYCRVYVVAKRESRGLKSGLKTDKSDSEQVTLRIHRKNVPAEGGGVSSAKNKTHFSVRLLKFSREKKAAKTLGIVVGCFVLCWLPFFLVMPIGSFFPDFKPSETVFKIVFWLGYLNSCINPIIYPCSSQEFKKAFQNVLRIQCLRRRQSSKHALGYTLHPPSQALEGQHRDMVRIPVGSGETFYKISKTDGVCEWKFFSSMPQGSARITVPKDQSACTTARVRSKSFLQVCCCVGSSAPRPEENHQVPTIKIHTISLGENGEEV
Sequence of D(2) dopamine receptor (Homo sapiens) (P14416 whole entry): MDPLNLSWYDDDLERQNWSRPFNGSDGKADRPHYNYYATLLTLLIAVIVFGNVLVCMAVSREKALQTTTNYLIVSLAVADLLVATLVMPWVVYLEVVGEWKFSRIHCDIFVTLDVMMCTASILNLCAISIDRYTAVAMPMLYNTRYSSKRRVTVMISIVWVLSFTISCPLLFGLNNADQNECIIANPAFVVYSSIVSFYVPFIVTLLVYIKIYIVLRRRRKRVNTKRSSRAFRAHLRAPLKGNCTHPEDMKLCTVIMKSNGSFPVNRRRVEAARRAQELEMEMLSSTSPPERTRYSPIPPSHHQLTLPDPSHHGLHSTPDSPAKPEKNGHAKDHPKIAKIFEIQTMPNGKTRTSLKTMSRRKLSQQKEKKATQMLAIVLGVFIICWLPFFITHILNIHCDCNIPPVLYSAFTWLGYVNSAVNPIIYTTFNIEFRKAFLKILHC
Sequence of TGF-beta receptor type-2 (Homo sapiens) (P37173 whole entry): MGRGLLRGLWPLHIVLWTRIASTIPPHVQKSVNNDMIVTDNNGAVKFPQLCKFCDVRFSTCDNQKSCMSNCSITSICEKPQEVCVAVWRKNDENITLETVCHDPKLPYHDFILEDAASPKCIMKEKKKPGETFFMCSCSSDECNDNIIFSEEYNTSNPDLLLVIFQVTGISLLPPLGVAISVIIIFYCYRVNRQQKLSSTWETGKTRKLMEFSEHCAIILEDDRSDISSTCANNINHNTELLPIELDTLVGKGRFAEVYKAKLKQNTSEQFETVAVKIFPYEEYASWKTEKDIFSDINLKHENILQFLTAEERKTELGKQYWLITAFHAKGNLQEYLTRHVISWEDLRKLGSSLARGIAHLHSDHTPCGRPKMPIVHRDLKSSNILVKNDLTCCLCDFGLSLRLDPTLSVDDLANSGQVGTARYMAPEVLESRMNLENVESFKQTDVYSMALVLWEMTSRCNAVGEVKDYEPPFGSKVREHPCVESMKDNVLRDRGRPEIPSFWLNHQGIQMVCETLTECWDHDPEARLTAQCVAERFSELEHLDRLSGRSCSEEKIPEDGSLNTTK

For `O=C1NCCCC1N1Cc2cc(C3CCN(C(=O)CCCCCN4CCC(c5ccc(Oc6nn7cnnc7c7c6CCCC7)cc5)CC4)CC3)ccc2C1=O` (configuration not stated), the inhibition in assay [1] is 11.3%; in [2], 32%; in [3] it was 10.8%; in assay [4] it was 11.9%; in [5] it was 68.3%; in assay [7], 3.95%. Moreover, the inhibition was 23% in [8]; 16.9% in assay [9]; 14% in [10]; 13% in assay [11]; 8% in assay [12]; 21% in assay [13]. Moreover, the inhibition in assay [14] stood at 19%; in assay [15], 39%; in assay [18] it was 36%. Moreover, the Ki in assay [6] (read-out: Ki) was 4810 nM; in assay [6] (read-out: pKi (converted)) it was 4470 nM; in [16] (read-out: Ki) it was 73.2 nM; in assay [16] (read-out: pKi (converted)) it was 72.4 nM; in [17] (read-out: Ki), 894 nM; in assay [17] (read-out: pKi (converted)), 891 nM.
Turning to `O=C1CCC(N2Cc3cc(C4CCN(C(=O)CCCCCN5CCC(c6ccc(Oc7nn8cnnc8c8c7CCCC8)cc6)CC5)CC4)ccc3C2=O)C(=O)N1` (configuration not stated), the inhibition was 12.7% in assay [1]; 28% in [2]; 1.6% in assay [3]; 14.3% in assay [4]; 25.6% in assay [5]; 5.83% in [7]. For the same compound, the inhibition in assay [8] was 10%; in assay [9] it was 22.7%; in assay [10], 10.1%; in assay [11], -8%; in [12], 19%; in assay [13], 32%. Further, the inhibition in assay [14] was 24%; in assay [15] it was 38%; in assay [18], 32%. The Ki in assay [6] (read-out: Ki) was 3730 nM; in assay [6] (read-out: pKi (converted)), 3390 nM; in assay [16] (read-out: Ki) it was 72.8 nM; in assay [16] (read-out: pKi (converted)), 70.8 nM; in assay [17] (read-out: Ki) it was 632 nM; in assay [17] (read-out: pKi (converted)) it was 617 nM.
